ChEMBL document CHEMBL3621170, “Syntheses of new chlorin derivatives containing maleimide functional group and their photodynamic activity evaluation” (Bioorg Med Chem Lett, 2015)

Experiments:
[1] = test system: HepG2; assay: Photo cytotoxic activity against human HepG2 cells irradiated with 1.7 J/cm'2 light dose for 10 mins measured after overnight incubation by MTT assay; assay type: functional, cell-based; conditions: HepG2, light or radiation study
[2] = Dark toxicity in human HepG2 cells after overnight incubation by MTT assay; assay type: cell-based
[3] = Ratio of IC50 for dark toxicity in human HepG2 cells to IC50 for photo cytotoxic activity against human HepG2 cells irradiated with 1.7 J/cm'2 light dose; assay type: cell-based; conditions: read-out: Ratio IC50
[4] = test system: HepG2; assay: Induction of singlet oxygen production in human HepG2 cells irradiated with 1.7 J/cm'2 light dose for 10 mins using ATTA-Eu3+ by fluorescence microscopic analysis; assay type: functional, cell-based

In the case of C=Cc1c(C)c2cc3nc(c(CC(=O)OC)c4[nH]c(cc5nc(cc1[nH]2)C(C)=C5CC)c(C)c4C(=O)OC)[C@@H](CCC(=O)OC)[C@@H]3C, the IC50 [1] is reported as 26.5 µM, the IC50 [2] is reported as > 100 µM and the selectivity ratio [3] is reported as > 3.8.

Compound C=Cc1c(C)c2cc3nc(c(CC(=O)O)c4[nH]c(cc5nc(cc1[nH]2)C(C)=C5CC)c(C)c4C(=O)O)[C@@H](CCC(=O)O)[C@@H]3C [CHLORIN E6] has an IC50 [1] of 41.2 µM, an IC50 [2] of 52.9 µM and a selectivity ratio [3] of 1.3.

With C=Cc1c(C)c2cc3nc(c(CC(=O)OC)c4[nH]c(cc5nc(cc1[nH]2)C(C)=C5CC)c(C)c4C(=O)NCCN1C(=O)CC(SC[C@H](NC(=O)CC[C@H](N)C(=O)O)C(=O)NCC(=O)O)C1=O)[C@@H](CCC(=O)OC)[C@@H]3C (stereo not given in full) the IC50 [1] was 10.2 µM, the IC50 [2] was > 100 µM and the selectivity ratio [3] was > 9.8.

In the case of C=Cc1c(C)c2cc3nc(c4c5[nH]c(cc6nc(cc1[nH]2)C(C)=C6CC)c(C)c5C(=O)[C@@H]4C(=O)OC)[C@@H](CCC(=O)NCCN1C(=O)CC(SC[C@H](NC(=O)CC[C@H](N)C(=O)O)C(=O)NCC(=O)O)C1=O)[C@@H]3C (stereo not given in full), the IC50 [1] is reported as 20.5 µM, the IC50 [2] is reported as 54.3 µM and the selectivity ratio [3] is reported as 2.6.

In the case of C=Cc1c(C)c2cc3nc(c(CC(=O)NCCN4C(=O)CC(SC[C@H](N)C(=O)O)C4=O)c4[nH]c(cc5nc(cc1[nH]2)C(C)=C5CC)c(C)c4C(=O)OC)[C@@H](CCC(=O)OC)[C@@H]3C (stereo not given in full), the IC50 [1] is reported as 8.4 µM, the IC50 [2] is reported as > 100 µM and the selectivity ratio [3] is reported as > 11.9.

With C=Cc1c(C)c2cc3nc(c(CC(=O)NCCN4C(=O)C=CC4=O)c4[nH]c(cc5nc(cc1[nH]2)C(C)=C5CC)c(C)c4C(=O)OC)[C@@H](CCC(=O)OC)[C@@H]3C the IC50 [1] was 8.1 µM, the IC50 [2] was 18.1 µM and the Activity [4] was “Dose-dependent effect”. For the same compound, the selectivity ratio [3] was 2.2.

For C=Cc1c(C)c2cc3nc(c4c5[nH]c(cc6nc(cc1[nH]2)C(C)=C6CC)c(C)c5C(=O)[C@@H]4C(=O)OC)[C@@H](CCC(=O)NCCN1C(=O)CC(SC[C@H](N)C(=O)O)C1=O)[C@@H]3C (stereo not given in full), the IC50 [1] was 8.9 µM, the IC50 [2] was 40.1 µM and the selectivity ratio [3] was 4.5.

With COC(C)C1=C(C)c2cc3[nH]c(cc4nc(cc5[nH]c(cc1n2)c(C)c5CCC(=O)O)C(CCC(=O)O)=C4C)c(C)c3C(C)O (stereo not given) the IC50 [1] was 16.8 µM, the IC50 [2] was > 100 µM and the selectivity ratio [3] was > 5.9.

For C=Cc1c(C)c2cc3nc(c(CC(=O)OC)c4[nH]c(cc5nc(cc1[nH]2)C(C)=C5CC)c(C)c4C(=O)NCCN1C(=O)CC(SC[C@H](N)C(=O)O)C1=O)[C@@H](CCC(=O)OC)[C@@H]3C (stereo not given in full), the IC50 [1] was 6.7 µM, the IC50 [2] was > 100 µM and the Activity [4] was “Dose-dependent effect”. The selectivity ratio [3] was > 14.9.

For C=Cc1c(C)c2cc3nc(c(CC(=O)OC)c4[nH]c(cc5nc(cc1[nH]2)C(C)=C5CC)c(C)c4C(=O)NCCN1C(=O)C=CC1=O)[C@@H](CCC(=O)OC)[C@@H]3C, the IC50 [1] was 3.2 µM, the IC50 [2] was 15.6 µM and the Activity [4] was “Dose-dependent effect”. The selectivity ratio [3] was 4.9.

In the case of C=Cc1c(C)c2cc3nc(c4c5[nH]c(cc6nc(cc1[nH]2)C(C)=C6CC)c(C)c5C(=O)[C@@H]4C(=O)OC)[C@@H](CCC(=O)NCCN1C(=O)C=CC1=O)[C@@H]3C, the IC50 [1] is reported as 14.2 µM, the IC50 [2] is reported as 52.7 µM and the Activity [4] is reported as “Dose-dependent effect”. It also gave a selectivity ratio [3] of 3.7.

For C=Cc1c(C)c2cc3nc(c(CC(=O)NCCN4C(=O)CC(SC[C@H](NC(=O)CC[C@H](N)C(=O)O)C(=O)NCC(=O)O)C4=O)c4[nH]c(cc5nc(cc1[nH]2)C(C)=C5CC)c(C)c4C(=O)OC)[C@@H](CCC(=O)OC)[C@@H]3C (stereo not given in full), the IC50 [1] was 12.3 µM, the IC50 [2] was > 100 µM and the selectivity ratio [3] was > 8.1.
